Several values for one entry are separate records, joined by “and”; a condition that tells them apart may be missing. Equal values may be shown once.
Legend:
[1] = target: T1, PPAR-α (Homo sapiens, UniProt Q07869); test: Scintillation Proximity Assay (SPA), displacement of 3H labeled GW2331; assay type: binding; settings: 3H GW2331 displacement, read-out: PPAR-alpha Ki
T1 sequence (Q07869 1-468): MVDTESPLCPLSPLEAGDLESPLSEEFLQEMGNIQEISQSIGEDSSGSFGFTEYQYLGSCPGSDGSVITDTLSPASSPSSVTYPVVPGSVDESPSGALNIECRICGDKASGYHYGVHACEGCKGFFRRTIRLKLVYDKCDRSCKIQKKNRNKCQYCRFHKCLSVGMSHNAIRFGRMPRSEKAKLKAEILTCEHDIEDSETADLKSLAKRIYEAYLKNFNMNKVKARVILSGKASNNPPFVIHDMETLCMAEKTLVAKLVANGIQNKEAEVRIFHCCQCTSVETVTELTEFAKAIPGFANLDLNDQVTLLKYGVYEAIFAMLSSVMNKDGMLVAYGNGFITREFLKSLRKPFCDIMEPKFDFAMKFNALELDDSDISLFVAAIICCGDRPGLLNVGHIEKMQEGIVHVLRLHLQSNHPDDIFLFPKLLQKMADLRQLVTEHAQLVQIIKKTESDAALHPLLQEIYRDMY
Source text: (§1) Scintillatian Proximity Assay (SPA) Assays
(§2) In the SPA assay, 3H labeled darglitazone (for PPAR-γ) or GW2331 (for PPAR-α) is bound to the PPAR protein captured on SPA polylysine beads and generates radioactive count signal that can be detected by TopCounts (Packard). The PPAR-bound 3H labeled ligand can be displaced by an unlabeled compound. The Ki of the compound can be then determined by the extent of displacement at various compound concentrations. Reagents: • SPA polylysine beads, which can be purchased from Amersham Bioscience. • H labeled Darglitazone for PPAR-γ. • H labeled GW2331 for PPAR-α. • PPAR proteins. • Buffer—PBS, 10% glycerol, 14 mM beta-mercaptoethanol.

[2] = target: T2, PPAR-γ (Homo sapiens, UniProt P37231); test: Scintillation Proximity Assay (SPA), displacement of 3H labeled darglitazone; assay type: binding; settings: 3H darglitazone displacement, read-out: PPAR-gamma Ki
T2 sequence (P37231 1-505): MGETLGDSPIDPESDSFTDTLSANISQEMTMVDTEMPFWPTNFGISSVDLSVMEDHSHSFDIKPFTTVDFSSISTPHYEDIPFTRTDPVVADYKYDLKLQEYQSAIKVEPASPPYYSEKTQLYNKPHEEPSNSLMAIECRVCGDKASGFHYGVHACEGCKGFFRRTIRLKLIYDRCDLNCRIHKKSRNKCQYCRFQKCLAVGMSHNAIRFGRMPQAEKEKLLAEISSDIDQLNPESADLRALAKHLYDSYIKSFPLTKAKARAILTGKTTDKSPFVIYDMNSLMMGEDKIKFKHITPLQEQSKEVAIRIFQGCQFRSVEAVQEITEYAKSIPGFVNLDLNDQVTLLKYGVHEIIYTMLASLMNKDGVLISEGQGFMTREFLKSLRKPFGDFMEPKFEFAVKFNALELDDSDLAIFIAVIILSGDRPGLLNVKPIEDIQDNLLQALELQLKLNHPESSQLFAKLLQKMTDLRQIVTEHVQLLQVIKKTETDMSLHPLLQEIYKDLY
Source text: as §1, §2

| SMILES | Ki [1] | Ki [2] |
| --- | --- | --- |
| CC(C)(Oc1cccc(-c2cccc(OCc3ccc(C(F)(F)F)cc3)c2)c1)C(=O)O [Example A-02, 2-Methyl-2-[(3′-{[4-(trifluoromethyl)benzyl]oxy}1,1′-biphenyl-3-yl)oxy]propanoic acid] | 0.55 µM |  |
| Cc1ccc(N2CCC(CCOc3cccc(-c4cccc(OC(C)(C)C(=O)O)c4)c3)CC2)nn1 [Example A-03, 2-Methyl-2-[(3′-{2-[1-(6-methylpyridazin-3-yl)piperidin-4-yl]ethoxy}1,1′-biphenyl-3-yl)oxy]propanoic acid] | 19 µM | 10 µM |
| Cc1oc(-c2ccccc2)nc1CCOc1cccc(-c2cccc(OC3(C(=O)O)CCC3)c2)n1 [Example A-07] | 0.12 µM |  |
| Cc1oc(-c2ccccc2)nc1CCOc1ccc(-c2cccc(OC3(C(=O)O)CCC3)c2)cc1 [Example A-10] | 4.4 µM | 1.5 µM |
| Cc1oc(-c2cccc(F)c2)nc1COc1cccc(-c2cccc(OC3(C(=O)O)CCC3)c2)c1 [Example A-11] | 0.12 µM | 0.58 µM |
| Cc1oc(-c2ccccc2)nc1CCCOc1cccc(-c2cccc(OC3(C(=O)O)CCC3)c2)c1 [Example A-12] | 0.35 µM | 0.051 µM |
| Cc1oc(-c2ccccc2)nc1CCCOc1cccc(-c2cccc(OC(C)(C)C(=O)O)n2)c1 [Example A-13] | 10 µM | 3.5 µM |
| O=C(O)C1(Oc2cccc(-c3cccc(OCc4cc(-c5ccccc5)no4)c3)c2)CCC1 [Example A-14] | 0.15 µM | 1.3 µM |
| COc1ccc(-c2nc(COc3cccc(-c4cccc(OC5(C(=O)O)CCC5)c4)c3)no2)cc1 [Example A-17] | 1.6 µM | 1.9 µM |
| Cc1nn(-c2ccccc2)nc1COc1cccc(-c2cccc(OC3(C(=O)O)CCC3)c2)c1 [Example A-18] | 14 µM | 1.7 µM |
| Cn1nc(-c2ccccc2)nc1COc1cccc(-c2cccc(OC3(C(=O)O)CCC3)c2)c1 [Example A-19] | 0.7 µM | 0.059 µM |
| Cc1onc(-c2ccccc2)c1COc1cccc(-c2cccc(OC3(C(=O)O)CCC3)c2)c1 [Example A-20] | 0.14 µM | 0.18 µM |
| Cc1oc(-c2cccc(F)c2)nc1CCOc1cccc(-c2cccc(OC(C)(C)C(=O)O)c2)c1 [Example A-21] | 0.31 µM | 0.088 µM |
| Cc1oc(-c2cc(F)cc(F)c2)nc1CCOc1cccc(-c2cccc(OC(C)(C)C(=O)O)c2)c1 [Example A-22] | 0.85 µM | 0.17 µM |
| Cc1oc(-c2ccccc2)nc1CCCOc1cccc(-c2cccc(OC(C)(C)C(=O)O)c2)c1 [Example A-23] | 0.18 µM | 0.39 µM |
| Cc1oc(-c2ccccc2)nc1COc1cccc(-c2cccc(OC(C)(C)C(=O)O)c2)c1 [Example A-24] | 0.018 µM | 0.78 µM |
| Cn1nc(-c2ccccc2)nc1CCOc1cccc(-c2cccc(OC(C)(C)C(=O)O)c2)c1 [Example A-25] | 4.2 µM | 3.2 µM |
| Cc1nn(-c2ccccc2)nc1CCOc1cccc(-c2cccc(OC(C)(C)C(=O)O)c2)c1 [Example A-26] | 0.33 µM | 0.15 µM |
| CC(C)(Oc1cccc(-c2cccc(OCCCOCc3ccccc3)c2)c1)C(=O)O [Example A-27] | 1.3 µM | 2.4 µM |
| CCC(Oc1cccc(CNC(=O)OCCc2cccc(C(F)(F)F)c2)c1)C(=O)O (stereo not drawn) [Example B-02] | 2.2 µM |  |
| CC(C)(Oc1cccc(CNC(=O)OCCc2cccc(C(F)(F)F)c2)c1)C(=O)O [Example B-03] | 9 µM | 31 µM |

| SMILES | Ki [1] | Ki [2] |
| --- | --- | --- |
| CC(C)(Oc1cccc(COC(=O)NCCc2ccc(C(F)(F)F)cc2)c1)C(=O)O [Example B-04] | 48 µM | 1.5 µM |
| Cc1oc(-c2ccccc2)nc1CCOC(=O)NCc1cccc(OC(C)(C)C(=O)O)c1 [Example B-05] | 2.04 µM and 3.2 µM and 3.6 µM | 1.33 µM and 2.9 µM and 2 µM |
| Cc1oc(-c2ccccc2)nc1COC(=O)NCc1cccc(OC(C)(C)C(=O)O)c1 [Example B-06] | 0.13 µM | 0.37 µM |
| Cc1oc(-c2ccccc2)nc1CCCOC(=O)NCc1ccc(OC(C)(C)C(=O)O)cc1 [Example B-07] | 12 µM | 0.65 µM |
| Cc1oc(-c2ccccc2)nc1COC(=O)NCc1ccc(OC(C)(C)C(=O)O)cc1 [Example B-08] | 3.1 µM | 0.48 µM |
| CCC(Oc1cccc(CNC(=O)OCCc2nc(-c3ccccc3)oc2C)c1)C(=O)O (stereo not drawn) [Example B-13] | 9 µM |  |
| CCC(Oc1cccc(CNC(=O)OCCCc2nc(-c3ccccc3)oc2C)c1)C(=O)O (stereo not drawn) [Example B-18] | 0.082 µM |  |
| CC(C)(Oc1cccc(CNS(=O)(=O)c2ccc(Oc3ccccc3)cc2)c1)C(=O)O [Example B-20] | 1.6 µM |  |
| CCC(Oc1cccc(CNC(=O)OCc2ccc(-c3noc(C)n3)cc2)c1)C(=O)O (stereo not drawn) [Example B-27] | 0.22 µM |  |
| CC(Cc1ccccc1)OC(=O)NCc1cccc(OC(C)(C)C(=O)O)c1 (stereo not drawn) [Example B-28] | 7.8 µM |  |
| Cc1oc(-c2ccccc2)nc1CCOc1ccc(CC2(C(=O)O)CCCC2)cc1 [Example C-02] | 0.39 µM |  |
| Cc1oc(-c2ccccc2)nc1CCCOc1ccc(CC2(C(=O)O)CCCC2)cc1 [Example C-03] | 2.9 µM |  |
| Cc1oc(-c2ccccc2)nc1CCOc1ccc(CC2(C(=O)O)CCOCC2)cc1 [Example C-05] | 15 µM |  |
| O=C(O)C1(Cc2ccc(OCCCc3nc(-c4ccccc4)oc3-c3ccccc3)cc2)CCC1 [Example C-38] |  | 7.2 µM |
| Cc1oc(-c2ccccc2)nc1CCOc1ccc(C(O)C2(C(=O)O)CCC2)cn1 (stereo not drawn) [Example C-44] | 36 µM |  |
| Cc1oc(-c2ccccc2)nc1CCOc1ccc(CC2(C(=O)O)CCCCC2)cn1 [Example C-47] | 8.3 µM |  |
| Cc1oc(-c2ccccc2)nc1CCOc1ccc(CC2(C(=O)O)CCCO2)cn1 (stereo not drawn) [Example C-48, 2-({6-[2-(5-methyl-2-phenyl-1,3-oxazol-4-yl)ethoxy]pyridin-3-yl}methyl)tetrahydrofuran-2-carboxylic acid] | 0.24 µM |  |
| Cc1oc(-c2ccccc2)nc1CCCOc1ccc(CC2(C(=O)O)CCCO2)nc1 (stereo not drawn) [Example C-55] |  | 6 µM |
| Cc1oc(-c2ccccc2)nc1CCOc1ccc(CC2(C(=O)O)CCCCO2)cn1 (stereo not drawn) [Example C-56] | 0.078 µM |  |
| Cc1oc(-c2cccc(Cl)c2)nc1CCOc1ccc(CC2(C(=O)O)CCCO2)cn1 (stereo not drawn) [Example C-59] | 0.054 µM |  |
| COc1ccc(-c2nc(CCOc3ccc(CC4(C(=O)O)CCCO4)cn3)c(C)o2)cc1 (stereo not drawn) [Example C-60] | 0.065 µM |  |

| SMILES | Ki [1] | Ki [2] |
| --- | --- | --- |
| Cc1oc(-c2ccc(C(F)(F)F)cc2)nc1CCOc1ccc(CC2(C(=O)O)CCCO2)cn1 (stereo not drawn) [Example C-63] | 0.021 µM |  |
| Cc1oc(-c2ccc(Cl)cc2)nc1CCOc1ccc(CC2(C(=O)O)CCCO2)cn1 (stereo not drawn) [Example C-64] | 0.014 µM |  |
| Cc1ccc(-c2nc(CCOc3ccc(CC4(C(=O)O)CCCO4)cn3)c(C)o2)cc1 (stereo not drawn) [Example C-66] | 0.031 µM |  |
| Cc1nc(CCOc2ccc(CC3(C(=O)O)CCCO3)cn2)c(C)s1 (stereo not drawn) [Example C-68] |  | 4.2 µM |
| Cc1ccccc1CCOc1ccc(CC2(C(=O)O)CCCO2)cn1 (stereo not drawn) [Example C-70] | 6.4 µM |  |
| Cc1ccc(CCOc2ccc(CC3(C(=O)O)CCCO3)cn2)cc1 (stereo not drawn) [Example C-71] | 9.7 µM |  |
| CS(=O)(=O)Oc1ccc(CCOc2ccc(CC3(C(=O)O)CCCO3)cn2)cc1 (stereo not drawn) [Example C-72] | 7.1 µM |  |
| CC(C)(C)OC(=O)Nc1ccc(CCOc2ccc(CC3(C(=O)O)CCCO3)cn2)cc1 (stereo not drawn) [Example C-73] |  | 0.042 µM |
| Cc1oc(-c2ccccc2)nc1CCCCc1ccc(CC2(C(=O)O)CCCO2)cn1 (stereo not drawn) [Example C-75] |  | 0.82 µM |
| Cc1oc(-c2ccc(C(F)(F)F)c(F)c2)nc1CCOc1ccc(CC2(C(=O)O)CCCO2)cc1 (stereo not drawn) [Example C-82] |  | 0.016 µM |
| COC(Cc1ccc(OCCc2ccc(OS(C)(=O)=O)cc2)nc1)C(=O)O [Example D-12] |  | 8.1 µM |
| CCOC(Cc1ccc(OCCc2ccc(OCCOC)cc2)nc1)C(=O)O [Example D-16] |  | 6.4 µM |
| CCOC(Cc1ccc(OCCCc2nc(-c3ccccc3)oc2C)cn1)C(=O)O [Example D-24] | 0.93 µM |  |
| CCOC(Cc1ccc(OCCc2nc(C)sc2C)cn1)C(=O)O [Example D-25] |  | 2.9 µM |
| COC(C)(Cc1ccc(OCCCc2nc(-c3ccccc3)oc2C)nc1)C(=O)O [Example D-27] |  | 7.8 µM |
| COC(C)(Cc1ccc(OCCc2nc(-c3ccccc3)oc2C)nc1)C(=O)O [Example D-35] | 0.33 µM |  |
| COC(C)(Cc1ccc(OCCc2nc(C(C)C)oc2C)nc1)C(=O)O [Example D-38] |  | 9.6 µM |
| COC(C)(Cc1ccc(OCCc2nc(-c3cc(C)nn3C)oc2C)nc1)C(=O)O [Example D-39] |  | 5 µM |
| COC(C)(Cc1ccc(OCCc2ccc(OC(F)(F)F)cc2)nc1)C(=O)O [Example D-41] | 5.9 µM |  |
